The source of these data is publication PMC11729428, “New Potent Inhibitor of Transforming Growth Factor-Beta (TGFβ) Signaling that is Efficacious against Microsatellite Stable Colorectal Cancer Metastasis in Combination with Immune Checkpoint Therapy in Mice” (ACS Pharmacology & Translational Science, 2024).

Structures are written as SMILES. Where two headings read alike, the source gives them in different places. A value given as a limit tells only on which side of the number the result lay.

Data set [1] concerns mouse tumor organoids (MTOs), established CRC liver metastases. Kind of data set: Treatment of established CRC liver metastases, alone or with anti-PD1. In kind it is in vivo, mice. Conditions: for Cure of established liver metastases as monotherapy: 0.1× doses: 80, 82 and 71 mg/kg BID for galunisertib, vactosertib and HYL001, anti-PD1 IP alone. As to the method: Encouraged by the increased potency observed in vitro and in the inhibition of liver metastatic initiation in vivo, we evaluated the ability of a relatively low HYL001 dose to help overcome established liver metastases when combined with immune checkpoint inhibition. In this experimental set up, a low number of MTO cells (25K) was injected in the portal vein (leaving the spleen unaltered), and liver metastases were allowed to develop and grow for 15 days before treatment with TGFβ inhibitors was initiated. This was done in combination with 3–4 intraperitoneal (IP) injections of immune-checkpoint inhibition therapy (anti-PD1 or isotype control antibody), spaced 2–3 days (Figure 6A,B).
Figure 6 HYL001 efficacy in dual immunotherapy against established CRC liver metastases. (A) Overview of experimental timing: dual treatment between days 14 and 28 after MTO injection (TGFβ inhibitor doses were all 0.1 ×); follow-up until humane end point. Below: numbers of countable liver lesions after sacrifice. Statistical comparisons to the vehicle + IgG2a control (above) or the vehicle+αPD1 condition (below) by two-tailed Mann–Whitney U test; ns: P ≥ 0.05; *P < 0.05; **P < 0.01; ***P < 0.001; ****P < 0.0001. (B) Kaplan–Meier curves indicate the survival (until humane end point) of mice under each treatment; P values were computed by the Mantel–Cox test (Log-rank).
For all tumor cell injections, C57BL/6J (or athymic BALB/C nu/nu) mice were purchased from Janvier at 6 weeks of age and injected at 7–8 weeks. Sex was matched with the origin of the tumor organoids, i.e., males for this study. Intrasplenic or portal vein injections, respectively, with 31G needles on 1 mL insulin syringes or 33G needles on a 50/100 μL Hamilton syringe, were used for liver colonization by the introduction of dissociated organoids (single cells) into the portal circulation. MTOs were cultured in standard six-well plates for 4 days and trypsinized as described before.[5] The resulting single cell suspension in HBSS (Lonza) was filtered through 100 and 40 μm mesh (to remove clumps of cells and aggregated debris). Intrasplenic injections were performed, as previously described,[5],[8],[9] using 2 × 10^5 cells in 70 μL HBSS. For portal vein injections, […] in 25 μL HBSS were injected directly into the portal vein.[5] Mice were euthanized at 3–5 weeks or at the humane end point (advanced metastasis-associated morbidity causing or threatening to cause severe suffering) to obtain survival-type data. Visible liver metastases were counted, and data were analyzed using GraphPad Prism software (v.7.03).
Gavage treatments were performed by technicians from the animal facility, not involved in this study (blinded). For checkpoint immunotherapy or dual treatments, we used rat anti-PD-1 (RMP1–14; Leinco P372) or rat IgG2a (Leinco I-1177) isotype-control antibodies.

The nature of data set [2]: Buffer stability (hepatocyte assay control). The data set is classed as physicochemical. The procedure:
Similarly, buffer was added to recovery and stability samples. Next,
Samples were monitored for
parent compound using multiple reaction monitoring (MRM) mode. […]
(§1) Metabolic stability in human primary hepatocytes
This assay was performed at Sai Life Sciences Lt. (Telangana, India) with human suspension hepatocytes
(§2) All other reactions were initiated by […]

For data set [3], the system named is panel of 97 wild-type and disease-relevant mutant kinases. The data set is classed as binding. As to conditions: for Additional kinases showing >85% competitive binding: besides ALK5 and ALK4/ACVR1B. The source says: We also assessed the selectivity of these three inhibitors toward a panel of 97 wild-type and disease-relevant mutant kinases, distributed throughout various kinase families.
Figure 2 Selectivity of HYL001. […] TK: tyrosine kinases; TKL: tyrosine kinase-like kinases; STE: serine/threonine kinases; CK1: casein kinase 1 family; AGC: serine/threonine kinases, regulated by secondary messengers such as cyclic AMP (PKA) or lipids (PKC); CAMK: Ca^2+/calmodulin-dependent protein kinase family; and CMGC: primarily proline-directed serine/threonine kinases (CDKs, GSKs, MAP kinases, and CDK-like kinases).
5. Methods for In vitro characterizations of HYL001
Kinase affinity and selectivity
The affinity of the ALK5 inhibitor HYL001 was determined for the ALK kinase family using the […]
DNA-tagged kinases and immobilized assay ligands, using quantitative PCR —run by Eurofins/DiscoveryX (Birmingham AL, USA). Dissociation constants were calculated by measuring the amount of kinase captured on the solid support as a function of the test compound concentration. Kd values were obtained by an 11 -point […]
(BMPR1A), ALK4 (ACVR1B), ALK6 (BMPR1B), ACVR2B and TGFβ R2. In addition, this technology was […]
The strength of competitive binding, defined as the percentage of binding inhibition of kinases to assay ligan d, was visualized using the TREEspot software (DiscoverRx Corporation) and a selectivity score was calculated (the fraction of non -mutated kinases tested with competitive binding inhibition above threshold percentages 65 […]

Another data set relates to TGFβ pathway. Kind of data set: Cellular TGFβ reporter (12xCAGA luciferase) assay in HEK293T cells. In kind it is cell-based. Conditions: for IC50: Homo sapiens, HEK-293T, 5 ng/mL recombinant TGFβ, 12xCAGA luciferase reporter, read-out: cellular inhibition TGFβ pathway IC50. The procedure:
We next tested the three inhibitors in a cellular assay, using a luciferase-based reporter assay[20] in HEK293T cells in the presence or absence of inhibitors (Table 1). Upon activation of the endogenous receptors by 5 ng/mL recombinant TGFβ, phosphorylation of the TGFBR1 triggers phosphorylation of the intracellular mediators SMAD2/3, and subsequent nuclear translocation with SMAD4. The SMAD2/3-SMAD4 complex binds to the TGFβ response element (12xCAGA) allowing the transcription of the Firefly luciferase reporter.
HEK293T cells were purchased from the ATCC and cultured in DMEM supplemented with L-glutamine and 10% fetal bovine serum (Life Technologies) at 37 °C and 5% CO2. The cells were seeded in 24-well plates and transfected with plasmids encoding 12xCAGA-Firefly_Luc and Tk-Renilla_Luc (75 and 10 ng per well, respectively) using polyethylenimine (Polysciences) as the transfection reagent. After 7 h, the medium was replaced with starvation medium (DMEM + 0.05% FBS). […] Bioluminescence was measured in a Berthold Lumat LB6507 luminometer (18 μL of reagents, 10 s measurements). Results were normalized to those of the Renilla transfection control. Inhibition–concentration curves were analyzed in Prism Graphpad Prism (v10.1.1) with a least-squares regression nonlinear fit.

A short description of data set [4]: Metabolic stability in human cryopreserved hepatocytes. The data set is classed as in vitro ADME. As to the method:
as §1
This assay was performed at Sai Life Sciences Lt. (Telangana, India) with human suspension hepatocytes […]
as §2
analysis by LC-MS/MS, using MRM mode. […]
related to phase I and phase II metabolism, respectively.
The PARs were used for calculation of metabolic stability. The 0 min area ratio was considered as 100%. The […]
incubation volume / number of cells (in millions) x K e. To calculate into full body context, the values of 120 […]

The mark [5] stands for this setting: 10 μM compound, 90 kinases tested.
Setting [6] is: human, hepatocytes, 0 h, pH 7.4.
The mark [7] stands for this setting: human, hepatocytes, 5 min, pH 7.4.
The mark [8] stands for this setting: human, hepatocytes, 0.25 h, pH 7.4.
[9] abbreviates: human, hepatocytes, 0.5 h, pH 7.4.
Setting [10] is: human, hepatocytes, pH 7.4, Disappearance T1/2.

One may read the IC50 as the midpoint of a concentration-inhibition curve. For orientation: CLint scaled means the capacity of the preparation to metabolise the compound, expressed as a volume cleared per time. Consider `Cc1cccc(-c2nn3c(c2-c2ccnc4ccc(O)cc24)CCC3)n1` [HYL001, 4-(2-(6-Methylpyridin-2-yl)-5,6-dihydro-4H-pyrrolo[1,2-b]pyrazol-3-yl)quinolin-6-ol], for which the “Cure of established liver metastases as monotherapy” value (“Cure … as monotherapy” for short) in data set [1] is “not efficacious”. Moreover, the “Tumor burden in numbers of liver nodules” value in data set [1] (dual therapy with anti-PD1) is “marked overall reduction”. Also, the “Mice cured at the end point (number)” value in data set [1] (dual therapy with anti-PD1, 71 mg/kg BID) is listed as 8/10. Further, the “Mice cured at the end point” value in data set [1] (dual therapy with anti-PD1, 71 mg/kg BID, surviving 2.5 months after injection) is recorded as “up to 80%”. Moreover, the “Buffer Stability” value in data set [2] (0 min, pH 7.4) is 100%; in data set [2] (60 min, pH 7.4), 117%. Also, the “Number of kinase interactions (>65% competitive binding inhibition)” value (from here on “Number … (>65% competitive binding inhibition)”) is 1 in data set [3] (0.3 μM compound, 22 kinases tested); 5 in data set [3] (3 μM compound, 22 kinases tested); 13 in data set [3] (setting [5]). The “Selectivity score S(>65_10), fraction of wildtype kinases inhibited >65%” value was determined as 0.144 in data set [3] (10 μM compound) and 0.14 in data set [3] (10 μM compound, listed as HYL). Besides, the “Selectivity score S(>90_10), fraction of wildtype kinases inhibited >90%” value in data set [3] (10 μM compound) was 0.1. Also, the “Additional kinases showing >85% competitive binding” value in data set [3] is “ABL-1, CSNK1G2, and p38α”. Besides, the “Fold higher potency compared to galunisertib in TGFβ reporter assay” value in the data set with TGFβ pathway is on record as approximately 2 fold. In the data set on TGFβ pathway, the IC50 is 72 nM. The Parent compound remaining in data set [4] (setting [6]) was 100%; in data set [4] (setting [7]), 67%; in data set [4] (setting [8]) it was 59%; in data set [4] (setting [9]), 56%. In addition, in data set [4] (human, hepatocytes, pH 7.4), the CLint scaled was 32.1 mL/min/kg. The compound further showed a half-life in data set [4] (setting [10]) of 51.8 min.
Take `Cc1cccc(-c2nn3c(c2-c2ccnc4ccc(C(N)=O)cc24)CCC3)n1` [galunisertib]: in data set [1], the “Cure … as monotherapy” value is reported as “not efficacious”. The “Buffer Stability” value in data set [2] (0 min, pH 7.4) came out at 100%; in data set [2] (60 min, pH 7.4) it was 105%. For the same compound, the “Number … (>65% competitive binding inhibition)” value in data set [3] (setting [5]) came out at 10. The half-inhibitory concentration (IC50) in the data set on TGFβ pathway is 157 nM. The Parent compound remaining in data set [4] (setting [6]) was determined as 100%; in data set [4] (setting [7]), 97%; in data set [4] (setting [8]), 92%; in data set [4] (setting [9]), 90%; in data set [4] (human, hepatocytes, 1 h, pH 7.4), 76%. Moreover, the CLint scaled in data set [4] (human, hepatocytes, pH 7.4) is 10.4 mL/min/kg. Besides, the half-life was 160 min in data set [4] (human, hepatocytes, pH 7.4, Assumed T1/2) and more than 60 min in data set [4] (setting [10]).
In the case of `Cc1cccc(-c2[nH]c(CNc3ccccc3F)nc2-c2ccc3ncnn3c2)n1` [vactosertib, N -((4-([1,2,4]Triazolo[1,5-a]Pyridin-6-Yl)-5-(6-Methylpyridin-2-Yl)-1 H -Imidazole-2-Yl)Methyl)-2-Fluoroaniline], the “Cure … as monotherapy” value in data set [1] is reported as “not efficacious”. Moreover, the “Buffer Stability” value came out at 100% in data set [2] (0 min) and 84% in data set [2] (60 min). In data set [3] (setting [5]), the “Number … (>65% competitive binding inhibition)” value was found to be 24. In data set [3], the “Additional kinases showing >85% competitive binding” value is “ERBB2, FGFR2/3, KIT, MEK1/2, PDGFRA/B, SRC, and VEGFR2”. In the data set on TGFβ pathway, the half-maximal inhibitory concentration (IC50) was found to be 10 nM. For the same compound, the CLint scaled in data set [4] (hepatocytes (suspension, cryopreserved), pH 7.4, scaled using 120 M cells per g liver, liver weight 20 g/kg (human), read-out: Scaled in vivo Clint) is 30.1 mL/min/kg. For the same compound, the Parent compound remaining is on record as 100% in data set [4] (human hepatocytes, incubation time 0 min); 60% in data set [4] (human hepatocytes, incubation time 5 min); 59% in data set [4] (human hepatocytes, incubation time 15 min); 52% in data set [4] (human hepatocytes, incubation time 30 min); less than 50% in data set [4] (human hepatocytes, incubation time 60 min); 39% in data set [4] (human hepatocytes, incubation time 60 min, listed as Vactosertib). Besides, the half-life in data set [4] (human, hepatocytes (suspension, cryopreserved), pH 7.4, human hepatocytes, read-out: Disappearance T1/2) came out at 55.3 min.
